How the values were obtained:
[1] = Storage stability by LC/MS at a later date; format: physicochemical; details: primarily to the hydride
Experimental: Compound 116 (50 mg, 33 μmol), hexamethylditin (14 mg, 9 μL, 42 μmol) and tetrakis triphenylphosphine palladium(0) (1 mg 1 μmol) were slurried in dioxane (1 mL), purged with nitrogen for 30 m and heated to 100° C. for an hour. The reaction was mixture was adsorbed onto silica gel and chromatographed (50 g C18, 0.2% formic acid to 100% MeOH) to give product 118 (13.9 mg, 27%) as a blue solid. LC/MS gives a single peak with a little shoulder with m/z=785.8 [M+2H]^2+ as part of a cluster typical of Tin compounds.

[2] = test system: MDA-MB-468 cells; assay: 100 internalization assay in MDA-MB-468 cells; format: cell-based; details: MDA-MB-468 cells; dose and time series
Experimental: (§1) Cells were plated on uncoated 18-mm round coverslips in 12 well plates at 150,000 cells/well and were allowed to adhere overnight. 100, in a stock solution in DMSO, was diluted in serum-free/phenol red-free DMEM. After drug incubation, the cells were washed twice with ice-cold PBS, fixed with 1% PFA in PBS for 10 min, and stained with 5 μg/mL wheat germ agglutinin-488 (WGA-488, Invitrogen, Waltham, Mass.) and either Hoescht or DAPI. The coverslips were washed and mounted onto microscope slides using FluorSave mounting reagent (Millipore, Darmstadt, Germany). Slides were imaged on a Leica SP5 confocal microscope.
(§2) Images were analyzed for fluorescence and puncta using ImageJ software using a non-biased, high-throughput macro. In brief, cells were selected using an expanded selection from the DAPI channel. The regions of interest were then masked, a watershed filter was applied to split adjacent cells into separate cells, and the regions of interest were applied to the 100 channel to measure fluorescence and puncta. High resolution confocal stacks were deconvolved with Hyugen's Deconvolution Software or AiryScan.
(§3) To analyze the internalization of eHsp90 in transformed cells, the 4T1 cell model was utilized.

[3] = test system: MMTV-neu spontaneous mammary tumor; assay: Cryo-imaging and histology of MMTV-neu spontaneous mammary tumor mice; format: in vivo, mouse
Text: […] Slices of 5-μm thickness were cut and placed on slides to dry overnight. Slides were then deparaffinized and either H&E stained or rehydrated and stained with DAPI before mounting. Slides were imaged at 20× magnification on a Zeiss Axio Imager widefield fluorescence microscope equipped with a color camera.
To investigate the tumor specificity and eHsp90 internalization in a more relevant model of human breast cancer, the MMTV-neu spontaneous mammary tumor mouse model was used (FIGS. 4c-d). […] Following cryoslicing, each 40 μm slice was imaged for fluorescence and brightfield. […] Previous studies have reported the autofluorescence of Leydig cells in the testes due to the presence of a lipophilic pigment.

[4] = test system: MDA-MB-468 cells; assay: Confocal imaging of eHsp90 puncta in probe-treated tumor cells; format: cell-based
Experimental: as §1, §2
Using a standard fluorescence curve, the concentration within the puncta of 100 was estimated to be 4.66±0.05 μM. […]

[5] = test system: non-malignant cells; assay: Puncta formation on non-malignant cells; format: cell-based
Experimental: Using a standard fluorescence curve, the concentration within the puncta of 100 was estimated to be 4.66±0.05 μM. Based on puncta volume and a ratio of 1:1 for 100:Hsp90 (as each monomer of Hsp90 has a single ATP-binding site), the larger puncta are estimated to contain 2659±105 monomers of eHsp90. Accumulation of the puncta intracellularly is time-dependent (FIG. 3b). Formation of the puncta is eHsp90-dependent and not related to any physiochemical properties of the probes themselves. […] This diffusion may be a result of exchange with intracellular ATP or the degradation of the internalized eHsp90. Probe aggregates alone would not be expected to spontaneously dissipate without the addition of some form of organic solvent.

[6] = test system: eHsp90; assay: Competition of fluorescent probe binding to eHsp90 on cells by untethered Hsp90 inhibitors; format: cell-based
Experimental: Cells were plated on uncoated 18-mm round coverslips in 12 well plates at 150,000 cells/well and were allowed to adhere overnight. 100, in a stock solution in DMSO, was diluted in serum-free/phenol red-free DMEM. […] The coverslips were washed and mounted onto microscope slides using FluorSave mounting reagent (Millipore, Darmstadt, Germany). Slides were imaged on a Leica SP5 confocal microscope.
as §2, §3

[7] = test system: eHsp90; assay: Live imaging and tracking of puncta (lattice light sheet microscope); format: cell-based; details: 10 μM 100 competed with 100 μM HS-10
Experimental: Live imaging was also performed on cells treated with 100 alone, 101, or 100 and HS-10, and spots were tracked over time to investigate any differences in puncta movement and size. […] Puncta detected with 100 were competed with HS-10 (FIG. 3d).

Structure (SMILES): Cc1nn(-c2ccc(C(N)=O)c(NCCCOCCOCCOCCOCCOCCCN(Cc3ccc(C(=C\C=C4\N(CCCCS(=O)(=O)O)c5ccccc5C4(C)C)/C=C/C4=[N+](CCCCS(=O)(=O)[O-])c5ccccc5C4(C)C)cc3)Cc3ccc[c]([Sn]([CH3])([CH3])[CH3])c3)c2)c2c1C(=O)CC(C)(C)C2 [Compound 118, 4-(2-((E,3Z)-3-(4-(21-((2-carbamoyl-5-(3,6,6-trimethyl-4-oxo-4,5,6,7-tetrahydro-1H-indazol-1-yl)phenyl)amino)-2-(3-(trimethylstannyl)benzyl)-6,9,12,15,18-pentaoxa-2-azahenicosyl)phenyl)-5-((E)-3,3-dimethyl-1-(4-sulfobutyl)indolin-2-ylidene)penta-1,3-dien-1-yl)-3,3-dimethyl-3H-indol-1-ium-1-yl)butane-1-sulfonate]
- stability on storage [1]: significant decomposition

Structure (SMILES): Cc1nn(-c2ccc(C(=O)N(C)C)c(NCCCOCCOCCOCCOCCOCCCNCc3ccc(C(=C\C=C4\N(CCCCS(=O)(=O)O)c5ccccc5C4(C)C)/C=C/C4=[N+](CCCCS(=O)(=O)[O-])c5ccccc5C4(C)C)cc3)c2)c2c1C(=O)CC(C)(C)C2 [Compound 101, 4-(2-((1E,3Z)-5-((E)-3,3-dimethyl-1-(4-sulfobutyl)indolin-2-ylidene)-3-(4-(21-((2-(dimethylcarbamoyl)-5-(3,6,6-trimethyl-4-oxo-4,5,6,7-tetrahydro-1H-indazol-1-yl)phenyl)amino)-6,9,12,15,18-pentaoxa-2-azahenicosyl)phenyl)penta-1,3-dien-1-yl)-3,3-dimethyl-3H-indol-1-ium-1-yl)butane-1-sulfonate]
- uptake of probe [2]: only weakly internalized at higher concentrations
- probe uptake in MMTV-neu mammary tumor ([3]; 25 nmol i.v., 6 hours, cryoslicing and histology): No uptake was observed
- specific drug fluorescence in duct epithelium of tumor cells (histology) ([3]; FIG. 5, serial sections, DAPI/Cy5): not in the 101-treated mouse

Structure (SMILES): Cc1nn(-c2ccc(C(N)=O)c(NCCCOCCOCCOCCOCCOCCCNC(=S)Nc3ccc4c(c3)C(=O)OC43c4ccc(O)cc4Oc4cc(O)ccc43)c2)c2c1C(=O)CC(C)(C)C2 [HS-27, reference compound]
- puncta formation when applied to cells [4]: forms puncta
- puncta formation on non-malignant cells [5]: puncta do not form

Structure (SMILES): Cc1nn(-c2ccc(C(N)=O)c(N[C@H]3CC[C@H](O)CC3)c2)c2c1C(=O)CC(C)(C)C2 [HS-10]
- competition of binding of probe 100 to eHsp90 ([6]; MDA-MB-468 cells, 100 at 25 μM, 45 min, 1 μM HS-10 or 10 μM PUH71): competed
- blocking of binding of 100 and HS-27 to eHsp90 ([6]; untethered Hsp90 inhibitors): blocked
- competition of puncta detected with 100 [7]: competed

Structure (SMILES): CCOCCCNCc1ccc(C(=C\C=C2\N(CCCCS(=O)(=O)O)c3ccccc3C2(C)C)/C=C/C2=[N+](CCCCS(=O)(=O)[O-])c3ccccc3C2(C)C)cc1 [Compound 19, 4-(2-((1E,3Z)-5-((E)-3,3-dimethyl-1-(4-sulfobutyl)indolin-2-ylidene)-3-(4-(((3-ethoxypropyl)amino)methyl)phenyl)penta-1,3-dien-1-yl)-3,3-dimethyl-3H-indol-1-ium-1-yl)butane-1-sulfonate]
- puncta formation when applied to cells [4]: does not form puncta

Reference: patent publication US11261187B2, “Compounds and methods for targeting HSP90” (Duke University, priority 2016, dated 2022)
